Reference: patent US20110160196A1, “FACTOR XA INHIBITORS” (Millennium Pharmaceuticals, Inc., priority 2007, published 2011)

Biological target: T1, human plasma protein factor Xa (Homo sapiens, UniProt P00742)
T1 construct: The human plasma protein factor Xa was purchased; purchased Haematologic Technologies (Essex Junction, Vt.); host or cells: human plasma
Experiment: Factor Xa IC50 determination (cleavage of paranitroanilide substrate S-2765)
Type: biochemical
Conditions: factor Xa 1 nM, S-2765 100 μM, Tris buffered saline pH 7.4, read at 405 nm
Text: This example illustrates methods for evaluating the compounds of the invention, along with results obtained for such assays. The in vitro and in vivo human Factor Xa activities of the inventive compounds can be determined by various procedures known in the art, such as a test for their ability to inhibit the activity of human plasma Factor Xa. […] The IC50 value is the concentration (in nM) of the compound required to provide 50% inhibition of human Factor Xa proteolytic activity.
An in vitro assay for detecting and measuring inhibition activity against Factor Xa is as follows:
The substrate S-2765 (Z-D-Arg-Gly-Arg-pNA.HCl) was obtained from Diapharma (West Chester, Ohio).
The human plasma protein factor Xa was purchased from Haematologic Technologies (Essex Junction, Vt.).
All assays, which are performed in 96-well microtiter plates, measure proteolytic activity of the enzyme (factor Xa) by following cleavage of a paranitroanilide peptide substrate. The assay buffer used for proteolytic assays was Tris buffered saline (20 mM Tris, 150 mM NaCl, 5 mM CaCl2, 0.1% Bovine serum albumin (BSA), 5% Dimethly Sulfoxide (DMSO) pH 7.4). In a 96-well microtiter plate, inhibitor was serially diluted to give a range of final concentrations from 0.01 nM to 10 μM. Duplicate sets of wells were assayed and control wells without inhibitor were included. Enzyme was added to each well, (factor Xa concentration=1 nM), the plate was shaken for 5 seconds and then incubated for 5 minutes at room temperature. S-2765 was added (100 μM final) and the plate was shaken for 5 seconds (final volume in each well was 200 μl). The degree of substrate hydrolysis was measured at 405 nm on a Thermomax plate reader (Molecular Devices, Sunnyvale, Calif.) for 2 minutes. The initial velocities of substrate cleavage (mOD/min), for each range of inhibitor concentrations, were fitted to a four parameter equation using Softmax data analysis software. The parameter C, derived from the resulting curve-fit, corresponded to the concentration for half maximal inhibition (IC50).

T1 sequence (P00742 235-488 limits assumed): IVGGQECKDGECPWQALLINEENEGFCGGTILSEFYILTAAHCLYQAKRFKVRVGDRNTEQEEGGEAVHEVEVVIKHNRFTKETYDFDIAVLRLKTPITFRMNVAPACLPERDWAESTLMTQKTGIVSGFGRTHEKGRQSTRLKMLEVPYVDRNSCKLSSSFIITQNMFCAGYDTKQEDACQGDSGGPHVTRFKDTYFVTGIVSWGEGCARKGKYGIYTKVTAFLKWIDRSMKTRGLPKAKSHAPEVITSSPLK
T1 sequence (P00742 41-179 partner limits assumed): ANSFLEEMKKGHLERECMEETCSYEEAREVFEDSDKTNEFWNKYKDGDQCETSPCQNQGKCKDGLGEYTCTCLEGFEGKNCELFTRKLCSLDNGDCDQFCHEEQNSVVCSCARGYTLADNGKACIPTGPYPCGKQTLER

IC50	Compound
≤ 100 nM	O=C(NCc1cn(-c2ccc(-n3ccccc3=O)cc2N2CCCC2)nn1)c1ccc(Cl)s1 [Compound 3, 5-Chloro-N-((1-(4-(2-oxopyridin-1(2H)-yl)-2-(pyrrolidin-1-yl)phenyl)-1H-1,2,3-triazol-4-yl)methyl)thiophene-2-carboxamide]
≤ 100 nM	O=C(NCc1cn(-c2ccc(-n3ccccc3=O)cc2N2CCCCC2)nn1)c1ccc(Cl)s1 [Compound 4, 5-Chloro-N-((1-(4-(2-oxopyridin-1(2H)-yl)-2-(piperidin-1-yl)phenyl)-1H-1,2,3-triazol-4-yl)methyl)thiophene-2-carboxamide]
≤ 100 nM	O=C(NCc1cn(-c2ccc(-n3ccccc3=O)cc2N2CCOCC2)nn1)c1ccc(Cl)s1 [Compound 5, 5-Chloro-N-((1-(2-morpholino-4-(2-oxopyridin-1(2H)-yl)phenyl)-1H-1,2,3-triazol-4-yl)methyl)thiophene-2-carboxamide]
≤ 100 nM	O=C(NCc1cn(-c2ccc(-n3ccccc3=O)cc2N2CCSCC2)nn1)c1ccc(Cl)s1 [Compound 10, 5-Chloro-N-((1-(4-(2-oxopyridin-1(2H)-yl)-2-thiomorpholinophenyl)-1H-1,2,3-triazol-4-yl)methyl)thiophene-2-carboxamide]
≤ 100 nM	CN(C)C1CCN(c2cc(-n3ccccc3=O)ccc2-n2cc(CNC(=O)c3ccc(Cl)s3)nn2)CC1 [Compound 16, 5-Chloro-N-((1-(2-(4-(dimethylamino)piperidin-1-yl)-4-(2-oxopyridin-1(2H)-yl)phenyl)-1H-1,2,3-triazol-4-yl)methyl)thiophene-2-carboxamide]
≤ 100 nM	NC1CCN(c2cc(-n3ccccc3=O)ccc2-n2cc(CNC(=O)c3ccc(Cl)s3)nn2)CC1 [Compound 17, N-((1-(2-(4-Aminopiperidin-1-yl)-4-(2-oxopyridin-1(2H)-yl)phenyl)-1H-1,2,3-triazol-4-yl)methyl)-5-chlorothiophene-2-carboxamide]
≤ 100 nM	CC(=O)NC1CCN(c2cc(-n3ccccc3=O)ccc2-n2cc(CNC(=O)c3ccc(Cl)s3)nn2)CC1 [Compound 18, N-((1-(2-(4-Acetamidopiperidin-1-yl)-4-(2-oxopyridin-1(2H)-yl)phenyl)-1H-1,2,3-triazol-4-yl)methyl)-5-chlorothiophene-2-carboxamide]
≤ 100 nM	NC(=O)NC1CCN(c2cc(-n3ccccc3=O)ccc2-n2cc(CNC(=O)c3ccc(Cl)s3)nn2)CC1 [Compound 20, 1-(1-(2-(4-((2-Chlorothiophene-5-carboxamido)methyl)-1H-1,2,3-triazol-1-yl)-5-(2-oxopyridin-l(2H)-yl)phenyl)piperidin-4-yl)urea]
≤ 100 nM	O=C(NCc1cn(-c2ccc(-n3ccccc3=O)cc2N2CCC(O)CC2)nn1)c1ccc(Cl)s1 [Compound 21, 5-Chloro-N-((1-(2-(4-hydroxypiperidin-1-yl)-4-(2-oxopyridin-1(2H)-yl)phenyl)-1H-1,2,3-triazol-4-yl)methyl)thiophene-2-carboxamide]
≤ 100 nM	O=C(NCc1cn(-c2ccc(-n3ccccc3=O)cc2N2CCC[C@H](O)C2)nn1)c1ccc(Cl)s1 [Compound 23, 5-Chloro-N-((1-(2-((S)-3-hydroxypiperidin-1-yl)-4-(2-oxopyridin-1(2H)-yl)phenyl)-1H-1,2,3-triazol-4-yl)methyl)thiophene-2-carboxamide]
≤ 100 nM	O=C(NCc1cn(-c2ccc(-n3ccccc3=O)cc2N2CCC(C(=O)O)CC2)nn1)c1ccc(Cl)s1 [Compound 24, 1-(2-(4-((2-Chlorothiophene-5-carboxamido)methyl)-1H-1,2,3-triazol-1-yl)-5-(2-oxopyridin-1(2H)-yl)phenyl)piperidine-4-carboxylic acid]
≤ 100 nM	NC(=O)C1CCN(c2cc(-n3ccccc3=O)ccc2-n2cc(CNC(=O)c3ccc(Cl)s3)nn2)CC1 [Compound 25, 1-(2-(4-((2-Chlorothiophene-5-carboxamido)methyl)-1H-1,2,3-triazol-1-yl)-5-(2-oxopyridin-1(2H)-yl)phenyl)piperidine-4-carboxamide]

Further lines, the molecule ahead of its results:

Compound	IC50
CNc1cc(-n2ccccc2=O)ccc1-n1cc(CNC(=O)c2ccc(Cl)s2)nn1 [Compound 1, 5-Chloro-N-((1-(2-(methylamino)-4-(2-oxopyridin-1(2H)-yl)phenyl)-1H-1,2,3-triazol-4-yl)methyl)thiophene-2-carboxamide]	≤ 100 nM
CN(C)c1cc(-n2ccccc2=O)ccc1-n1cc(CNC(=O)c2ccc(Cl)s2)nn1 [Compound 2, 5-Chloro-N-((1-(2-(dimethylamino)-4-(2-oxopyridin-1(2H)-yl)phenyl)-1H-1,2,3-triazol-4-yl)methyl)thiophene-2-carboxamide]	≤ 100 nM
O=C1CN(c2cc(-n3ccccc3=O)ccc2-n2cc(CNC(=O)c3ccc(Cl)s3)nn2)CCN1 [Compound 6, 5-Chloro-N-((1-(2-(3-oxopiperazin-1-yl)-4-(2-oxopyridin-1(2H)-yl)phenyl)-1H-1,2,3-triazol-4-yl)methyl)thiophene-2-carboxamide]	≤ 100 nM
O=C(NCc1cn(-c2ccc(-n3ccccc3=O)cc2N2CC[S+]([O-])CC2)nn1)c1ccc(Cl)s1 [Compound 11, 5-Chloro-N-((1-(4-(2-oxopyridin-1(2H)-yl)-2-((1-oxo-)thiomorpholino)phenyl)-1H-1,2,3-triazol-4-yl)methyl)thiophene-2-carboxamide]	≤ 100 nM
O=C(NCc1cn(-c2ccc(-n3ccccc3=O)cc2N2CCS(=O)(=O)CC2)nn1)c1ccc(Cl)s1 [Compound 12, 5-Chloro-N-((1-(4-(2-oxopyridin-1(2H)-yl)-2-((1,1-dioxo-)thiomorpholino)phenyl)-1H-1,2,3-triazol-4-yl)methyl)thiophene-2-carboxamide]	≤ 100 nM
CC(=O)N1CCN(c2cc(-n3ccccc3=O)ccc2-n2cc(CNC(=O)c3ccc(Cl)s3)nn2)CC1 [Compound 13, N-((1-(2-(4-Acetylpiperazin-1-yl)-4-(2-oxopyridin-1(2H)-yl)phenyl)-1H-1,2,3-triazol-4-yl)methyl)-5-chlorothiophene-2-carboxamide]	≤ 100 nM
CC(=N)N1CCN(c2cc(-n3ccccc3=O)ccc2-n2cc(CNC(=O)c3ccc(Cl)s3)nn2)CC1 [Compound 14, 5-Chloro-N-((1-(2-(4-(1-iminoethyl)piperazin-1-yl)-4-(2-oxopyridin-1(2H)-yl)phenyl)-1H-1,2,3-triazol-4-yl)methyl)thiophene-2-carboxamide]	≤ 100 nM
NC(=O)N1CCN(c2cc(-n3ccccc3=O)ccc2-n2cc(CNC(=O)c3ccc(Cl)s3)nn2)CC1 [Compound 15, 4-(2-(4-((2-Chlorothiophene-5-carboxamido)methyl)-1H-1,2,3-triazol-1-yl)-5-(2-oxopyridin-1(2H)-yl)phenyl)piperazine-1-carboxamide]	≤ 100 nM
O=C(NCc1cn(-c2ccc(-n3ccccc3=O)cc2N2CCC[C@@H](O)C2)nn1)c1ccc(Cl)s1 [Compound 22, 5-Chloro-N-((1-(2-((R)-3-hydroxypiperidin-1-yl)-4-(2-oxopyridin-1(2H)-yl)phenyl)-1H-1,2,3-triazol-4-yl)methyl)thiophene-2-carboxamide]	≤ 100 nM
O=C(NCc1cn(-c2ccc(-n3ccccc3=O)cc2NCCO)nn1)c1ccc(Cl)s1 [Compound 26, 5-Chloro-N-((1-(2-(2-hydroxyethylamino)-4-(2-oxopyridin-1(2H)-yl)phenyl)-1H-1,2,3-triazol-4-yl)methyl)thiophene-2-carboxamide]	≤ 100 nM
CN(CCO)c1cc(-n2ccccc2=O)ccc1-n1cc(CNC(=O)c2ccc(Cl)s2)nn1 [Compound 28, 5-Chloro-N-((1-(2-((2-hydroxyethyl)(methyl)amino)-4-(2-oxopyridin-1(2H)-yl)phenyl)-1H-1,2,3-triazol-4-yl)methyl)thiophene-2-carboxamide]	≤ 100 nM
COCCN(C)c1cc(-n2ccccc2=O)ccc1-n1cc(CNC(=O)c2ccc(Cl)s2)nn1 [Compound 29, 5-Chloro-N-((1-(2-((2-mcthoxyethyl)(methyl)amino)-4-(2-oxopyridin-1(2H)-yl)phenyl)-1H-1,2,3-triazol-4-yl)methyl)thiophene-2-carboxamide]	≤ 100 nM
NCCNc1cc(-n2ccccc2=O)ccc1-n1cc(CNC(=O)c2ccc(Cl)s2)nn1 [Compound 30, N-((1-(2-(2-Aminoethylamino)-4-(2-oxopyridin-1(2H)-yl)phenyl)-1H-1,2,3-triazol-4-yl)methyl)-5-chlorothiophene-2-carboxamide]	≤ 100 nM
O=C(NCc1cn(-c2ccc(-n3ccccc3=O)cc2-n2ccnc2)nn1)c1ccc(Cl)s1 [Compound 42, N-((1-(2-(1H-Imidazol-1-yl)-4-(2-oxopyridin-1(2H)-yl)phenyl)-1H-1,2,3-triazol-4-yl)methyl)-5-chlorothiophene-2-carboxamide]	≤ 100 nM
